{"source": "patent US20110294843A1", "about": "“ADMINISTRATION SCHEME OF POLAR OPIOID METABOLITES FOR POST-OPERATIVE PAIN MANAGEMENT” (PAION UK Limited, priority 2008, published 2011)", "key": {"μ-opioid receptor": {"biological_target": "μ-opioid receptor (Homo sapiens, UniProt P35372)", "sequence (P35372 whole entry, species assumed)": "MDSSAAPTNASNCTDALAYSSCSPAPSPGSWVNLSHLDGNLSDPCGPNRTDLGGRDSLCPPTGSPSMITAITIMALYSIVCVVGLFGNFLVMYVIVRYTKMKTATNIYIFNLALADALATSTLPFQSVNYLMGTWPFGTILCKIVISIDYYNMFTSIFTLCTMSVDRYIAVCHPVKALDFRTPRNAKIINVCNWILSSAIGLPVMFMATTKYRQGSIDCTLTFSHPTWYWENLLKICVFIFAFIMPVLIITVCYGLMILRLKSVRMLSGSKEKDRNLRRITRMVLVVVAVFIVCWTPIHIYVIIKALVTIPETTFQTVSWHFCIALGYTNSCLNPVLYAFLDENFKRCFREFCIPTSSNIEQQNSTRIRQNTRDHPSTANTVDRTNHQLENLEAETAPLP", "conditions": "cited from earlier work"}, "[1]": {"tested_on": "patients following total knee-replacement surgery", "assay": "M6G015 study: pain following total knee-replacement surgery", "assay_type": "in vivo, human", "conditions": "10, 20, 30 mg/70 kg slow IV, PCA morphine allowed", "description": "Patients received a single dose of study treatment 150 minutes after the administration of the nerve block. […] The complete study has recently been reported by Dahan et al. (Eur J Pain, 2008; 12(4): 403-411)."}, "[2]": {"conditions": "literature, cited from earlier work"}, "[3]": {"tested_on": "patients following major abdominal surgery", "assay": "M6G022 study: analgesic efficacy and tolerability of M6G and morphine following major abdominal surgery", "description": "Pain relief, nausea and emesis were recorded for 24 to 48 hours after start of the patient controlled analgesia.\nThe study site personnel (with the exception of the pharmacy); representatives of the sponsoring company; and the organisation involved in monitoring, data management, or other aspects of the study were blinded to the study treatment. The use of midazolam, temazepam, zopiclone or other short-acting pre-operative anxiolytics was allowed. All patients received a standardised general anaesthetic consisting of propofol induction, with either isoflurane or sevoflurane maintenance. These inhalational agents are associated with a similar risk of PONV. Nitrous oxide was not allowed because of its emetic effects, and the risk of an imbalance in its use. An initial bolus of 1-3 μg/kg of fentanyl or 0.1-0.3 μg/kg of sufentanyl followed by further doses as required, was used for pre- and peri-operative analgesia. Post-operative analgesia was provided by the study drug.\nThe investigator could administer up to 5 ml of PCA study drug, on no more than two occasions in each 24 hour post-operative period, as rescue medication if the patient was in uncontrolled pain. […] The patients stayed on PCA for a minimum of 24 hours following surgery, but could continue up to 48 hours if clinically indicated.\nNo prophylactic antiemetic was given, although iv ondansetron (4 mg/2 ml) was available if the patient experienced severe nausea, or immediately following emesis. If this was ineffective further doses of ondansetron; or other agents such as cyclizine, prochlorperazine or perphenazine; were allowed.\nPain intensity at rest was assessed by the patients using the VRS-11 scale at baseline, 15, 30 and 45 minutes and 1, 2, 4, 6, 9, 12, 15, 18, 21 and 24 hours after the start of PCA. A numerical scale was chosen because of the practical difficulty for post-operative patients of completing a visual analogue scale. If the patient remained on PCA after 24 hours, the pain scores were recorded every 8 hours up to 48 hours. In addition, at the end of the study the patients and observers were asked to assess the acceptability of their pain relief over the entire study using a 5 point rating global scale ranging from very poor (1) to excellent (5). […] The total consumption of study drugs was calculated.\nEmesis risk factors of female gender; history of motion sickness or PONV; or smoking status were recorded at screening. Post-operative nausea was assessed by the patient using a 4 point ordinal scale (none, mild, moderate, severe) and occurrence of vomiting or dry retching recorded (yes/no; and if yes, the number of episodes) pre-operatively (Day −1), at baseline, and at 1, 2, 4, 6, 9, 12, 15, 18, 21, 24, 32, 40 and 48 hours after administration of the test analgesic. Nausea and vomiting were also combined in a single scoring system (postoperative nausea & vomiting, PONV), with an episode of vomiting or dry retching being scored as a 3 (severe) on the nausea scale.\nSedation was assessed using a combination of a binary question (sleepy, yes or no) and a 3 point ordinal scale (mild, moderate, severe) if the patient was sedated. All adverse events were recorded, along with concomitant medication use, with particular attention being paid to the use of anti-emetics.\nThe Intention to Treat (ITT) set of patients comprised all those who had been exposed to study medication at least once. This analysis set was the basis for the main efficacy and all safety and demographic analyses. Data were double entered using interactive verification into a CLINTRIAL database (Version 3.3.3, Phase Forward, Waltham, Mass., USA), and analysed using SAS (version 8.2, SAS Institute Inc., Cary, N.C., USA)."}}, "note": "Where two headings read alike, the source gives them in different places."}
{"smiles": "CN1CC[C@]23c4c5ccc(O)c4O[C@H]2[C@@H](OC2OC(C(=O)O)C(O)C(O)C2O)C=CC3[C@H]1C5", "note": "(stereo partly drawn) [M6G, (5α,6α)-7,8-Didehydro-4,5-epoxy-3-hydroxy-17-methylmorphinan-β-yl-β-D-glucopyranosiduronic acid]", "values": [{"measurement": "affinity for the μ-opioid receptor compared with morphine", "setting": "μ-opioid receptor", "value": "comparable affinity"}, {"measurement": "patients' opinion of pain relief compared with placebo", "setting": "[1]", "value": "no statistically significant differences"}, {"measurement": "Log P", "setting": "[2]; Avdeef et al. 1996", "value": "−0.76"}, {"measurement": "Log P", "setting": "[2]; Gaillard et al. 1994, calculated from lipophilicity potential", "value": "−1.3"}, {"measurement": "Log P", "setting": "[2]; Wu et al. 1997", "value": "−2.95"}, {"measurement": "reduction of AUC for vomiting and dry retching in favour of M6G", "setting": "[3]; 0-24 hours", "value": 32.3, "unit": "%"}, {"measurement": "mean totals of PCA demands", "setting": "[3]; 4-48 h", "value": 53.1}, {"measurement": "reduction of AUC for vomiting and dry retching in favour of M6G", "setting": "[3]; 6-24 hours", "value": 34.2, "unit": "%"}, {"measurement": "Reduction of PONV AUC, M6G vs morphine", "setting": "[3]; AUC 0-6 h", "value": 27.0, "unit": "%"}, {"measurement": "Reduction of PONV AUC, M6G vs morphine", "setting": "[3]; AUC 0-12 h", "value": 26.3, "unit": "%"}, {"measurement": "Reduction of PONV AUC, M6G vs morphine", "setting": "[3]; AUC 0-24 h", "value": 24.3, "unit": "%"}, {"measurement": "Reduction of PONV AUC, M6G vs morphine", "setting": "[3]; AUC 6-24 h", "value": 28.5, "unit": "%"}, {"measurement": "Reduction of PONV AUC, M6G vs morphine", "setting": "[3]; AUC 12-24 h", "value": 24.5, "unit": "%"}, {"measurement": "Reduction of PONV AUC, M6G vs morphine", "setting": "[3]; AUC 24-48 h", "value": 10.3, "unit": "%"}, {"measurement": "patients with sedation score recorded as severe", "setting": "[3]; baseline", "value": 20.9, "unit": "%"}, {"measurement": "patients sedated", "setting": "[3]; baseline (when given control of the PCA button)", "value": 75.7, "unit": "%"}, {"measurement": "mean totals of PCA demands", "setting": "[3]; early post-operative period (up to 4 hours)", "value": 33.5}, {"measurement": "magnitude of reduction of PONV", "setting": "[3]; initial 24 hours post-operatively", "value": "24-29%"}, {"measurement": "dose required to achieve comfort initially", "setting": "[3]; loading and recovery doses before PCA", "value": 45.0, "unit": "mg/70 kg"}, {"measurement": "difference between the adjusted means of pain intensity AUCs for M6G and morphine", "setting": "[3]; over the 24 hours, VRS-11", "value": "+3.318"}, {"measurement": "pain intensity compared with morphine", "setting": "[3]; whole 24 hour period", "value": "non-inferior to morphine"}]}
